Key:
[1] = PAMPA
[2] = in vitro; conditions: PAMPA, pH 7.4
[3] = tested on: VeroE6 cells; conditions: cited from earlier work
[4] = tested on: wild-type EBOV (Orthoebolavirus zairense, Mayinga variant); conditions: for EC50: read-out: EC50 (EBOV)
[5] = tested on: EBOV-GP-pseudotype virus (pEBOV); conditions: cited from earlier work
[6] = tested on: EBOV-GP-pseudotype virus (pEBOV)
[7] = in vitro; conditions: for CC50: African green monkey; for CC50 at 24 h: chlorocebus sabaeus
[8] = tested on: A549 cells; conditions: cited from earlier work
[9] = tested on: EBOV-GP-pseudotype virus (pEBOV); experiment: microbe, parasite or virus in culture; conditions: Zaire ebolavirus; for EC50: Vero C1008, read-out: EC50 (pEBOV); for inhibition at 10 µM: Vero C1008, read-out: %inh@10 μM (pEBOV)
[10] = tested on: VSV-G-pseudotype virus (pVSV-G); experiment: microbe, parasite or virus in culture; format: cell-based; conditions: Vesicular stomatitis virus; read-out: %inh@10µM (pVSV-G)
[11] = pH 7.4
[12] = CD-1, mouse, pH 7.4
[13] = in vitro; conditions: human, microsomes, pH 7.4
[14] = in vitro; conditions: CD-1, mouse, microsomes, pH 7.4
[15] = target: EBOV-GP protein (Zaire ebolavirus, UniProt Q05320); format: binding, Ebola virus
[16] = target: EBOV-GPcl/NPC1-domain C interaction (Zaire ebolavirus, UniProt Q05320); format: binding; conditions: 50 μM

Cn1c(=O)c2c(ncn2C)n(C)c1=O [Caffeine, reference compound]
prediction of CNS penetration [1]: CNS−
Papp [2]: 1.5 ± 0.3 ×10⁻⁶ cm/s

CCn1cc(C(=O)O)c(=O)c2cc(F)c(N3CCNCC3)nc21 [Enoxacin, reference compound]
prediction of CNS penetration [1]: CNS−
Papp [2]: 1.2 ± 0.2 ×10⁻⁶ cm/s

NC(=O)c1nc(F)c[nH]c1=O [Favipiravir, reference compound]
CC50 [3]: > 1000 µM

CN1C(C(=O)Nc2ccccn2)=C(O)c2ccccc2S1(=O)=O [Piroxicam, reference compound]
prediction of CNS penetration [1]: CNS−
Pe ([1]; pH 7.4): 1.6 ± 0.7

CN(C)CCCN1c2ccccc2Sc2ccccc21 [Promazine, reference compound]
prediction of CNS penetration [1]: CNS+
Papp [2]: 9.1 ± 1.3 ×10⁻⁶ cm/s

O=C(CN1CCCC1)NNc1ccccc1Sc1cc(Cl)ccc1[N+](=O)[O-] [SC073]
SI (CC50/EC50), replicative EBOV [4]: 18.6
EC50 [4]: 4.3 µM
prediction of CNS penetration [1]: SNC +
SI (CC50/EC50) of the hits, pEBOV [5]: 27.5
CC50 [3]: 80 µM

CCN(CC)CC(=O)NNc1ccccc1Sc1cc(Cl)ccc1[N+](=O)[O-] [SC198]
SI (CC50/EC50), replicative EBOV [4]: 8.3
EC50 [4]: 6 µM
prediction of CNS penetration [1]: SNC +
SI (CC50/EC50) of the hits, pEBOV [5]: 12.4
CC50 [3]: 50 µM

CN(C)CCOc1ccc(/C(=C(/CCCl)c2ccccc2)c2ccccc2)cc1 [Toremifene, reference compound]
SI (pEBOV) (CC50/EC50) [6]: d Toremifene was used as the reference of the assay EC50 = 0.17 μM (95% CI = 0.15–0.54 μM), CC50 (VeroE6 cells) = 10 μM, SI = 58.8 (lit^25: EC50 = 0.07 ± 0.05 μM, CC50 (A549 cells) = 16 μM, SI = 229).
CC50 [7]: 10 µM
CC50 [8]: 16 µM
EC50 [9]: 0.17 µM

O=C(CN1CCCC1)Nc1ccccc1Sc1cc(Cl)ccc1[N+](=O)[O-] [compound 7, N-(2-((5-Chloro-2-nitrophenyl)thio)phenyl)-2-(pyrrolidin-1-yl)acetamide]
antiviral activity against pEBOV, in words [6]: inactive
EC50 (EBOV) [4]: inactive
CC50 [7]: > 200 µM
inhibition at 10 µM [9]: -2%

CCN(CC)CC(=O)Nc1ccccc1Sc1cc(Cl)ccc1[N+](=O)[O-] [compound 8, N-(2-((5-Chloro-2-nitrophenyl)thio)phenyl)-2-(diethylamino)acetamide]
antiviral activity against pEBOV, in words [6]: inactive
CC50 [7]: > 200 µM
inhibition at 10 µM [9]: -5%

O=C(CN1CCCCC1)Nc1ccccc1Sc1cc(Cl)ccc1[N+](=O)[O-] [compound 9, N-(2-((5-Chloro-2-nitrophenyl)thio)phenyl)-2-(piperidin-1-yl)acetamide]
antiviral activity against pEBOV, in words [6]: no activity
CC50 [7]: > 200 µM
inhibition at 10 µM [9]: -10%

O=C(CNCc1ccccc1)Nc1ccccc1Sc1cc(Cl)ccc1[N+](=O)[O-] [compound 10, 2-(Benzylamine)-N-(2-((5-chloro-2-nitrophenyl)thio)phenyl)acetamide]
antiviral activity against pEBOV, in words [6]: no activity
CC50 [7]: > 200 µM
inhibition at 10 µM [9]: 18%

O=C(CNCCC1CCN(Cc2ccccc2)CC1)Nc1ccccc1Sc1cc(Cl)ccc1[N+](=O)[O-] [compound 11, 2-((2-(1-Benzylpiperidin-4-yl)ethyl)amino)-N-(2-((5-chloro-2-nitrophenyl)thio)phenyl)acetamide]
inhibition at 10 µM [10]: 38%
SI (pEBOV) (CC50/EC50) [6]: 26.7
SI (CC50/EC50), replicative EBOV [4]: 28.8
EC50 [4]: 5.2 µM
metabolic stability in human liver microsomes CLint [11]: 25 ± 4 mL/min/mg protein
metabolic stability in mouse liver microsomes CLint [12]: 390 ± 70 mL/min/mg protein
prediction of CNS penetration [1]: SNC +
CC50 at 24 h [7]: 150 µM
half-life at 10 µM [13]: 23 ± 4 min
half-life at 10 µM [14]: 6 ± 1 min
EC50 [9]: 5.61 µM

O=C(CCN1CCCC1)Nc1ccccc1Sc1cc(Cl)ccc1[N+](=O)[O-] [compound 12, N-(2-((5-Chloro-2-nitrophenyl)thio)phenyl)-3-(pyrrolidin-1-yl)propanamide]
inhibition at 10 µM [10]: 36%
SI (pEBOV) (CC50/EC50) [6]: 61.2
EC50 (EBOV) [4]: inactive
metabolic stability in human liver microsomes CLint [11]: 12.5 ± 0.6 mL/min/mg protein
metabolic stability in mouse liver microsomes CLint [12]: 260 ± 80 mL/min/mg protein
prediction of CNS penetration [1]: SNC +
CC50 at 24 h [7]: 300 µM
half-life at 10 µM [13]: 46 ± 2 min
half-life at 10 µM [14]: 10 ± 3 min
EC50 [9]: 4.9 µM

CCN(CC)CCC(=O)Nc1ccccc1Sc1cc(Cl)ccc1[N+](=O)[O-] [compound 13, N-(2-((5-Chloro-2-nitrophenyl)thio)phenyl)-3-(diethylamino)propanamide]
inhibition at 10 µM [10]: -5%
SI (pEBOV) (CC50/EC50) [6]: 16.9
SI (CC50/EC50), replicative EBOV [4]: 3.3
EC50 [4]: 44.5 µM
metabolic stability in human liver microsomes CLint [11]: 36 ± 8 mL/min/mg protein
metabolic stability in mouse liver microsomes CLint [12]: 390 ± 60 mL/min/mg protein
prediction of CNS penetration [1]: SNC +
CC50 at 24 h [7]: 150 µM
half-life at 10 µM [13]: 16 ± 3 min
half-life at 10 µM [14]: 6.4 ± 0.9 min
EC50 [9]: 8.87 µM

O=C(CCNCCc1ccccc1)Nc1ccccc1Sc1cc(Cl)ccc1[N+](=O)[O-] [compound 14, N-(2-((5-Chloro-2-nitrophenyl)thio)phenyl)-3-(phenethylamino)propanamide]
antiviral activity against pEBOV, in words [6]: no activity
CC50 [7]: > 200 µM
inhibition at 10 µM [9]: 23%

O=C(CCNCCC1CCN(Cc2ccccc2)CC1)Nc1ccccc1Sc1cc(Cl)ccc1[N+](=O)[O-] [compound 15, 3-((2-(1-Benzylpiperidin-4-yl)ethyl)amino)-N-(2-((5-chloro-2-nitrophenyl)thio)phenyl)propanamide]
antiviral activity against pEBOV, in words [6]: no activity
CC50 at 24 h [7]: 9 µM
inhibition at 10 µM [9]: < 75%

O=C(CNCCC1CCN(Cc2ccccc2)CC1)Nc1ccccc1Nc1cc(Cl)ccc1[N+](=O)[O-] [compound 16, 2-((2-(1-Benzylpiperidin-4-yl)ethyl)amino)-N-(2-((5-chloro-2-nitrophenyl)amino)phenyl)acetamide]
inhibition at 10 µM [10]: -44%
STD-NMR competition with imipramine [15]: both compounds target the same binding site of EBOV-GP
binding to EBOV-GP by STD-NMR [15]: binds to the protein
effect on binding of EBOV-GP to NPC1 domain C (ELISA) [16]: interferes with the interaction between NPC1 and EBOV-GP
EC50 [4]: 4.42 µM
metabolic stability in human liver microsomes CLint [11]: 12 ± 2 mL/min/mg protein
increase in metabolic stability in human microsomes [11]: 105%
metabolic stability in mouse liver microsomes CLint [12]: 310 ± 50 mL/min/mg protein
prediction of CNS penetration [1]: SNC +
CC50 at 24 h [7]: 10 µM
half-life at 10 µM [13]: 47 ± 7 min
half-life at 10 µM [14]: 8 ± 1 min
EC50 [9]: 2.43 µM

O=C(CCN1CCCC1)Nc1ccccc1Nc1cc(Cl)ccc1[N+](=O)[O-] [compound 17, N-(2-((5-Chloro-2-nitrophenyl)amino)phenyl)-3-(pyrrolidin-1-yl)propanamide]
inhibition at 10 µM [10]: -133%
SI (pEBOV) (CC50/EC50) [6]: 27.9
SI (CC50/EC50), replicative EBOV [4]: 38.5
EC50 [4]: 6.48 µM
metabolic stability in human liver microsomes CLint [11]: 4.19 ± 0.02 mL/min/mg protein
increase in metabolic stability in human microsomes [11]: 195%
metabolic stability in mouse liver microsomes CLint [12]: 130 ± 17 mL/min/mg protein
prediction of CNS penetration [1]: SNC +
CC50 at 24 h [7]: 250 µM
half-life at 10 µM [13]: 136.2 ± 0.5 min
half-life at 10 µM [14]: 20 ± 3 min
EC50 [9]: 8.94 µM

CCN(CC)CCC(=O)Nc1ccccc1Nc1cc(Cl)ccc1[N+](=O)[O-] [compound 18, N-(2-((5-Chloro-2-nitrophenyl)amino)phenyl)-3-(diethylamino)propanamide]
inhibition at 10 µM [10]: 9%
SI (pEBOV) (CC50/EC50) [6]: 19.6
SI (CC50/EC50), replicative EBOV [4]: 5.2
EC50 [4]: 28.7 µM
metabolic stability in human liver microsomes CLint [11]: 9.1 ± 0.7 mL/min/mg protein
increase in metabolic stability in human microsomes [11]: 294%
metabolic stability in mouse liver microsomes CLint [12]: 180 ± 70 mL/min/mg protein
prediction of CNS penetration [1]: SNC +
CC50 at 24 h [7]: 150 µM
half-life at 10 µM [13]: 63 ± 5 min
half-life at 10 µM [14]: 14 ± 6 min
EC50 [9]: 7.65 µM

O=C(CCNCCc1ccccc1)Nc1ccccc1Nc1cc(Cl)ccc1[N+](=O)[O-] [compound 19, N-(2-((5-Chloro-2-nitrophenyl)amino)phenyl)-3-(phenethylamino)propanamide]
antiviral activity against pEBOV, in words [6]: inactive
CC50 at 24 h [7]: 15 µM
inhibition at 10 µM [9]: 15%
